Patent US9221875B2, “Amphiphilic peptides for treatment of keratitis” (Agency for Science, Technology and Research, priority 2013, dated 2015)
≈ marks a conversion by molar mass, not a printed value. Read-outs that look alike come from different tables or passages of the source. Values belong to the molecule of their own block, whether it stands above or below them. Peptide text beside a SMILES is read from it.

What was measured:
E. coli [1] = details: 18 h
S. aureus [2] = details: 18 h
C. albicans biofilm = assay: Biofilm biomass assay, crystal violet; assay type: cell-based, Candida albicans; details: 500 mg/L, 24 h
Experimental: The biomass of the biofilms was estimated by a crystal violet staining assay. Briefly, the formed biofilms were first treated with the peptide for 24 h as described above. After aspirating the culture medium, the biofilms were rinsed once with PBS, fixed with methanol for 15 min at room temperature and stained with 100 μL of 0.1% (weight by volume) crystal violet for 10 min. The excess crystal violet dye was removed by rinsing the wells with DI water five times. The dye that is associated with the biofilm was extracted using 100 μL of 33% glacial acetic acid per well, and […] aliquot from each well was transferred to a new 96-well plate for quantification of absorbance at a wavelength of 570 nm using a microplate reader (TECAN, Switzerland). The relative amount of biomass remaining after peptide treatment was expressed as a percentage of the control treated with broth containing 10 vol % of water. Data represented mean±standard deviations of 4 replicates for each concentration.

[3] = test system: 5 microorganisms tested (S. epidermidis, S. aureus, E. coli, P. aeruginosa, C. albicans); assay: Mean MIC over the panel and selectivity index (Example 1); assay type: cell-based
Experimental: Red blood cells suspension incubated with PBS was used as negative control.

F. solani = assay type: cell-based; details: 24 h
Experimental: (§1) The MICs of peptides were determined against the fungi C. albicans (American Type Culture Collection, ATCC) and F. solani (ATCC) by the broth microdilution method. […] F. solani, were cultured on sabouraud dextrose agar plates in incubator at 37° C. To collect conidia following incubation, conidia of F. solani species were harvested and standardized to 1×10^8 spores/ml before performing the experiments. Sabouraud dextrose broth (90 μL) was added to the wells of culture plates. […] The plates were incubated at 37° C. and examined macroscopically after 24 h for the growth of F. solani. Appropriate control wells without any treatment were included in the study. Peptide were considered to be active if the wells appeared clear without any visible growth of F. solani, and the results were expressed as MIC. The assay was performed in four replicates for each concentration.

C. albicans keratitis = assay: Contact lens-associated C. albicans keratitis mouse model
P. aeruginosa [4] = details: 18 h
S. epidermidis [5] = details: 18 h
[6] = Stability testing, autoclave and 6 weeks at room temperature, MALDI-TOF MS; assay type: physicochemical; details: 121° C. 15 min, 2 mg/mL, no protection from light
Experimental: Peptides 1 and 2 were dissolved in HPLC-grade water at 2 mg/mL, subjected to a standard steam sterilization autoclave cycle at 121° C. for 15 min, and allowed to stand at room temperature for a period of 6 weeks. The integrity of the peptides was determined by evaluating their molecular weights via MALDI-TOF MS before and after treatment.

C. albicans [7] = details: 42 h
C. albicans [8] = assay: In vitro killing kinetics; assay type: cell-based, Candida albicans
Experimental: The killing kinetics test was performed to evaluate the antimicrobial activities of peptides against C. albicans. Yeast solution was re-suspended in YMB (Difco) to achieve from 10^5 to 10^6 CFU mL^−1. […] Each dilution (20 μL) was plated on agar plate, and incubated 2 days. Surviving colonies were counted after incubation. An untreated inoculum group was used as a negative control. Tests were conducted in triplicates, and the results were presented as killing efficiency (%).

rabbit red blood cells = assay type: cell-based; details: red cells of rabbit, 1 h
C. albicans [9] = test system: C. albicans
S. aureus [10] = details: 18 h; remark: listed apart in the source
P. aeruginosa [11] = details: 18 h; remark: listed apart in the source
E. coli [12] = details: 18 h; remark: listed apart in the source
S. epidermidis [13] = details: 18 h; remark: listed apart in the source
C. albicans [14] = assay type: cell-based, Candida albicans; details: 42 h
Experimental: as §1

[15] = topical eye drops, peptides 3000 mg/L, amphotericin B 1000 mg/L

- MIC E. coli (E. coli [1]): 31.3 µg/mL (≈ 31.9 µM)
- MIC S. aureus (S. aureus [2]): 125 µg/mL (≈ 127 µM)
- MIC F. solani (F. solani): 31.3 µg/mL (≈ 31.9 µM)
- MIC P. aeruginosa (P. aeruginosa [4]): 31.3 µg/mL (≈ 31.9 µM)
- MIC S. epidermidis (S. epidermidis [5]): 2.0 µg/mL (≈ 2.04 µM)
- MIC C. albicans (C. albicans [7]): 2.0 µg/mL (≈ 2.04 µM)
SMILES: CC[C@H](C)[C@H](N)C(=O)N[C@@H](CCCCN)C(=O)N[C@H](C(=O)N[C@@H](CCCCN)C(=O)N[C@H](C(=O)N[C@@H](CCCCN)C(=O)N[C@H](C(=O)N[C@@H](CCCCN)C(N)=O)[C@@H](C)CC)[C@@H](C)CC)[C@@H](C)CC [(IKIK)2-NH2] (H-IKIKIKIK-NH2; N-terminus assumed)
- biomass of C. albicans biofilm (C. albicans biofilm): decreased significantly
- GM, geometric mean of MIC values for the 5 microorganisms tested [3]: 38.3 µg/mL
- fungal cells eradicated from the biofilms compared to the untreated control group (C. albicans keratitis; C. albicans counts in mice cornea, agar plating): ~90%
- depth of hyphal invasion into the cornea, PAS histology (C. albicans keratitis; [15]): reduced the maximal depth of hyphal invasion
- resolution of the keratitis infection (eye appearance) (C. albicans keratitis; [15]): significant resolution of the keratitis infection
- clinical scores of mice corneas (slit lamp) (C. albicans keratitis; topical eye drops, peptides 3000 mg/L, amphotericin B 1000 mg/L, P<0.01): significantly lower than that in the control group
- molecular weight after autoclaving and 6 weeks at room temperature in water [6]: remained unchanged with no degradation products observed
- time after which most fungi were killed (C. albicans [8]; at 2×MIC and 4×MIC): 1 h
- time after which most fungi were killed (C. albicans [8]; at MIC): 4 h

- MIC C. albicans (C. albicans [9]): 500 µg/mL (≈ 482 µM)
- MIC S. aureus (S. aureus [10]): >500 µg/mL
- MIC P aeruginosa (P. aeruginosa [11]): >500 µg/mL
- MIC F. solani (F. solani): >500 µg/mL
- MIC E. coli (E. coli [12]): >500 µg/mL
- MIC S. epidermidis (S. epidermidis [13]): >500 µg/mL
- MIC C. albicans (C. albicans [14]): >500 µg/mL
SMILES: CC[C@H](C)[C@H](N)C(=O)N[C@H](C(=O)N[C@@H](CCCNC(=N)N)C(=O)N[C@@H](CCCCN)C(=O)N[C@H](C(=O)N[C@H](C(=O)N[C@@H](CCCNC(=N)N)C(=O)N[C@@H](CCCCN)C(N)=O)[C@@H](C)CC)[C@@H](C)CC)[C@@H](C)CC [Control-all L] (H-IIRKIIRK-NH2; N-terminus assumed)
- HC10, haemolysis concentration 10%: lowest peptide concentration that induces ≧10% haemolysis (rabbit red blood cells): >2000 mg/L
